According to a melting point compilation (Tetko et al.; mined from patent text by program, amines drawn as free bases though some values may be those of a salt):

Compound `COc1cc(COc2nn(-c3ccccc3)cc2C=O)ccc1OCc1nc(-c2ccccc2)oc1C` has a melting point of 142 to 143 °C. `CCCCC1=NC2(CCCC2)C(=O)N1Cc1ccc(-c2ccccc2S(=O)(=O)Nc2onc(C)c2C)c(CCC(C)C)c1` gave a melting point of 50 to 53 °C. `CCOP(=O)(OCC)c1ccc2cccc(-c3cccc4ccccc34)c2n1` showed a melting point of 128 °C. For `CN(C)c1cccc2c(S(=O)(=O)Nc3ccc(Br)nc3)cccc12`, the melting point was 164 to 165 °C. For `CC(=O)NCC1CN(c2ccc3c(c2)C(=O)CCCC3)C(=O)O1` (stereo not given), the melting point was 120 to 121 °C. Compound `Cn1c(C(F)(F)F)cc(=O)n(-c2ccc3snc(OCC#N)c3c2)c1=O` has a melting point of 265 to 266 °C. Work on `CCSC1=C(c2ccc(O)cc2)C(=O)c2cc(O)cc(O)c21` yielded a melting point of 75 to 77 °C. `N=C(NN=Cc1ccc(OC(F)C(F)(F)F)cc1)NN=Cc1ccc(OC(F)C(F)(F)F)cc1` (stereo not given) gave a melting point of 125 to 130 °C. In the case of `NS(=O)(=O)c1ccc(CNC(=O)c2cccnc2Oc2cccc(-n3cnnn3)c2)cc1`, the melting point is reported as 72 to 74 °C. With `CC(C)(C)OC(=O)C(C(=O)O)c1cccc(N)c1` (stereo not given) the melting point was 105 °C. Work on `Cc1cc2c(cc1C(F)(F)F)NC(=O)CC(c1cccc(-c3ncoc3C)c1)=N2` yielded a melting point of 241 to 242 °C. For `O=C(O)C1(c2ccc(Cl)cc2)OCC(c2ccc(F)cc2)(c2ccc(F)cc2)CO1`, the melting point was 228 to 230 °C. Compound `CCCN1C(=O)N2CCN=C2c2c1ncn2C` has a melting point of 110 to 112 °C. Work on `CN(C)S(=O)(=O)c1cc(-c2csc(=Nc3ccc(C(F)(F)F)cc3)n2C)ccc1Cl` yielded a melting point of 147 to 151 °C. With `O=c1[nH]c2c(o1)-c1ccncc1CC2` the melting point was 290 to 292 °C. With `Fc1ccc2nccc(Cl)c2c1` the melting point was 71 to 74 °C. For `OC1(c2ccoc2)CN2CCC1CC2` (stereo not given), the melting point was 130 to 133 °C. With `O=[N+]([O-])c1ccc(-n2cncn2)cc1` the melting point was 198 °C. Work on `CC(=O)C1CNCc2c1[nH]c1cnc3ccccc3c21` (stereo not given) yielded a melting point of 218 to 221 °C. `CC1(C)C(=O)Nc2ccc(-c3ccc(F)c(Cl)c3)cc21` showed a melting point of 206 to 208 °C. With `C[C@]12CCC(=O)C=C1CCc1cc(Cl)ccc12` the melting point was 94 to 96 °C. In the case of `CC(C)(C)c1cc2c(c(C(C)(C)C)c1)OC(=O)C2c1ccc(C(F)(F)F)cc1` (stereo not given), the melting point is reported as 127 to 128 °C. For `COC(=O)c1cnn(C)c1Cl`, the melting point was 69 to 70 °C. `O=C(O)CCn1c(=O)c2ccccc2n(CCCCN2CCC(OC(c3ccccc3)c3ccccc3)CC2)c1=O` showed a melting point of 107 to 108 °C. For `O=c1ncc(I)cn1COCc1ccc(Cl)cc1`, the melting point was 168 °C. For `CCCCCCCCCCCCSc1nnn(C(C(N)=O)(c2ccccc2)c2c(C(C)C)cccc2C(C)C)n1` (stereo not given), the melting point was 102 to 105 °C. In the case of `CS(=O)(=O)OCCOc1ccccc1OCc1ccccc1`, the melting point is reported as 98 to 100 °C. `COC(=O)c1ccc(I)nc1` gave a melting point of 134 to 135 °C. Work on `CC(=O)c1c(C)[nH]c(-c2ccc(F)cc2)c1N` yielded a melting point of 211 to 212 °C. Work on `O=C(Nc1ccc(C(=O)Nc2ccc(Br)cn2)cn1)c1ccc(Br)nc1` yielded a melting point of 245 to 247 °C. Compound `O=C(O)CCCOc1ccc(-c2ccc(-c3c(Cc4ccccc4)sc4ccccc34)cc2)cc1Br` has a melting point of 135 to 137 °C. Work on `CC(C)(Cn1cncn1)C(=O)C=Cc1ccc2ccccc2c1` yielded a melting point of 103 to 104 °C. For `CC1=CC2=C(N3CN(N4CCOCC4)C=C3N=N2)N(c2ccccc2Cl)C1`, the melting point was 251 to 254 °C. Work on `Cc1ccccc1-n1ccc2c(=O)[nH]c3c(C)cccc3c21` yielded a melting point of 226 to 232 °C. Compound `FC(F)(F)COc1nc(NCc2ccc(C(F)(F)F)cc2)nc(Nc2ccc3cc[nH]c3c2)n1` has a melting point of 119 to 121 °C. In the case of `COC(C#N)c1ccc2ccccc2c1` (stereo not given), the melting point is reported as 47 to 48 °C. With `CCCC(c1ccc(C(=O)c2ccccc2)cc1OCc1ccc(Br)cc1)n1ccnc1` (stereo not given) the melting point was 70 to 72 °C. With `CCOCn1c(C(F)(F)F)cc(C#N)c1-c1ccc(Cl)cc1` the melting point was 83 to 84.5 °C. With `C1=C(CC2=NCCN2)CCc2ccccc21` the melting point was 221 to 223 °C. Compound `CC12CCCC1C1CCc3cc(C(=O)O)ccc3C1CC2` (stereo not given) has a melting point of 235 to 240 °C.
